Measured values published in ChEMBL document CHEMBL1201862, “PubChem BioAssay data set” (2004).
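Each compound was tested at five concentrations against cells in 96-well plates for 48 hours. At the GI50, growth is halved.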 The source made the active and inactive calls. No stated cut-off is given here; in the data, active = GI50 up to about 1.1 µM and inactive = higher.

Tests used:
Assay in all cases: NCI tumour cell line growth inhibition, 48 h
M19-MEL = tested on: M19-MEL
SNB-78 = tested on: SNB-78
RXF 631 = tested on: RXF 631
DLD-1 = tested on: DLD-1
PC-3 = tested on: PC-3
MCF7 = tested on: MCF7
Hs-578T = tested on: Hs-578T
BT-549 = tested on: BT-549
786-0 = tested on: 786-0

Measured: GI50

Cc1cc(NS(=O)(=O)c2ccc(NC(=O)c3cccc4c(Nc5ccc(S(N)(=O)=O)cc5)c5ccccc5nc34)cc2)no1
inactive: M19-MEL > 100 µM | SNB-78 > 100 µM | RXF 631 > 100 µM | DLD-1 > 100 µM

Cc1ccc(NC(=O)c2cccc([N+](=O)[O-])c2O)c(C)c1
inactive: M19-MEL 24.4 µM | SNB-78 26.9 µM | DLD-1 14.3 µM

N#CCCOCN(CO)c1nc(N(CO)COCCC#N)nc(N(CO)COCCC#N)n1
inactive: M19-MEL 23.8 µM | SNB-78 79.4 µM | DLD-1 26.7 µM

CSc1nc(N)c2c(-c3ccccc3)c3c(nc2n1)CCCC3
inactive: PC-3 > 100 µM | MCF7 > 100 µM | Hs-578T 21.5 µM | BT-549 > 100 µM

COc1cc([N+](=O)[O-])ccc1NC(=O)c1cccc([N+](=O)[O-])c1O
inactive: M19-MEL 24.6 µM | SNB-78 27.9 µM | RXF 631 30.8 µM | DLD-1 16.1 µM

CN(C)c1nc(N(C)C)nc(N(C)CN(C)c2ccccc2)n1
inactive: M19-MEL > 100 µM | SNB-78 > 100 µM

COc1ccc(-c2nnc(-c3ccncc3)o2)cc1
inactive: 786-0 > 100 µM | PC-3 > 100 µM | MCF7 > 100 µM | Hs-578T > 100 µM | BT-549 > 100 µM

CC(C)(C)OC(=O)NCC(=O)NC1c2ccsc2/C(=N/O)[C@H]1O (some centres undefined)
inactive: PC-3 > 100 µM | MCF7 > 100 µM | BT-549 > 100 µM

COc1cc2c(cc1OC)C(C1(O)CCCCC1)NCC2 (centres undefined)
inactive: M19-MEL > 100 µM | DLD-1 > 100 µM

O=C(NO)c1coc2ccccc2c1=O
inactive: SNB-78 > 100 µM | RXF 631 > 100 µM | DLD-1 > 100 µM

COc1cc(Cc2ccc3c(c2C#N)N(C)c2ccccc2S3)cc(OC)c1OC
inactive: M19-MEL 52.4 µM | SNB-78 > 100 µM | DLD-1 > 100 µM

CC(=C/c1ccccc1)/C=C1/NC(=S)N(/C=C2\C(=O)Oc3ccccc3C2=O)C1=O
inactive: PC-3 96.6 µM | MCF7 39.7 µM

O=C1c2ccccc2OCC12OC21C=CC(Cl)=CC1 (centres undefined)
inactive: PC-3 26.5 µM | MCF7 33.4 µM | BT-549 37.9 µM

Cc1ccccc1-c1nc2c(C(=O)NCCN(C)C)cccc2[nH]1
inactive: SNB-78 51.5 µM | MCF7 41 µM | DLD-1 37.7 µM

O=C1c2ccccc2N1C(=O)c1ccccc1[N+](=O)[O-]
inactive: 786-0 57 µM | PC-3 > 100 µM | MCF7 97.1 µM | Hs-578T 56.1 µM

NC(=O)Oc1ccccc1 [CARBAMIC ACID PHENYL ESTER]
inactive: PC-3 > 100 µM | MCF7 > 100 µM | Hs-578T > 100 µM

COCCOCOc1ccc(OCc2ccccc2)cc1
inactive: M19-MEL > 63.4 µM | SNB-78 > 100 µM | MCF7 > 35.9 µM | DLD-1 > 100 µM

COc1cc2c(cc1Oc1ccc(OC)c3c1CC1c4c(cc(OC)c(OC)c4-3)CCN1C)CC1c3c(cc(OC)c(OC)c3-2)CCN1C (centres undefined)
inactive: M19-MEL 1.74 µM | SNB-78 7.01 µM | MCF7 3.08 µM | DLD-1 2.23 µM
